According to ChEMBL document CHEMBL4033793, “Potent and Selective Inhibitors of Human Sirtuin 5” (J Med Chem, 2018):
Residues, ends and D or L forms follow the SMILES beside them. *: point of attachment. X11 = O=C(O)[C@H](CC(=O)*)SCc1cccc2ccccc12; X3 = O=C(O)[C@H](CC(=O)*)Sc1ccc(Cl)c(Cl)c1; X10 = Cc1noc(C)c1CCS[C@H](CC(=O)*)C(=O)O; X6 = Cc1noc(C)c1CCS[C@@H](CC(=O)*)C(=O)O; X8 = O=C(O)[C@H](CC(=O)*)Sc1ccccc1; X5 = O=C(O)C(CC(=O)*)SCCc1ccccn1; X7 = O=C(O)C(CC(=O)*)SCCc1ccncc1; X4 = O=C(O)C(CC(=O)*)Cc1ccccc1; Bz = O=C(c1ccccc1)*

These compounds were tested against NAD-dependent protein deacylase sirtuin-5, mitochondrial (Homo sapiens, UniProt Q9NXA8) (assay: Inhibition of human recombinant N-terminal Strep2-tagged SIRT5 expressed in Escherichia coli BL21 (DE3) using Abz-GVLK(glutaryl)AY(NO2)GV-NH2 as substrate in presence of NAD+ by fluorescence assay).
Chain of NAD-dependent protein deacylase sirtuin-5, mitochondrial (Q9NXA8 whole entry): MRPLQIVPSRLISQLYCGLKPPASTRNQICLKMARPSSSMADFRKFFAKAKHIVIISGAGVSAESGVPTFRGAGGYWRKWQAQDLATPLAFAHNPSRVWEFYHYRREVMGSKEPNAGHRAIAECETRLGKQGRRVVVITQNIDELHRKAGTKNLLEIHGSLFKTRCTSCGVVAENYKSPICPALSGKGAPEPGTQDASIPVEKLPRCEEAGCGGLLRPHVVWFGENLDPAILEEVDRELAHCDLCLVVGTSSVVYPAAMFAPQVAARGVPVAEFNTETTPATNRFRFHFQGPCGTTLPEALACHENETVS

Point of comparison: CC(=O)N[C@@H](CC(C)C)C(=O)N[C@@H](CCCCNC(=O)C[C@H](Sc1ccc2ccccc2c1)C(=O)O)C(=O)N[C@@H](C)C(N)=O, IC50 0.35 µM. Against it:
- C=CCN1C(=O)/C(=C/c2ccc(-c3cccc(Cl)c3Cl)o2)C(=O)NC1=S — 72-fold higher, 25.2 µM
- O=C(C[C@H](Sc1ccc2ccccc2c1)C(=O)O)NCCCc1ccccc1 — 210-fold higher, 72.6 µM
- O=C(C[C@H](Sc1ccc2ccccc2c1)C(=O)O)Nc1ccccc1 — 450-fold higher, 157 µM
- CC(=O)N[C@@H](CCCCNC(=O)C[C@H](Sc1ccc2ccccc2c1)C(=O)O)C(N)=O — 21-fold higher, 7.4 µM
- CNC(=O)c1cccc(NC(=O)C[C@H](Sc2ccc3ccccc3c2)C(=O)O)c1 — 260-fold higher, 90 µM
- CC(=O)N[C@@H](CC(C)C)C(=O)N[C@@H](CCCCNC(=O)CC(Sc1ccc2ccccc2c1)C(=O)O)C(=O)N[C@@H](C)C(N)=O (stereo partly specified) — 3.1-fold higher, 1.08 µM
- O=C(C[C@H](Sc1ccc2ccccc2c1)C(=O)O)NCc1ccccc1 — 350-fold higher, 124 µM
- CCCCNC(=O)C[C@H](Sc1ccc2ccccc2c1)C(=O)O — 440-fold higher, 154 µM
- CC(C)C[C@H](NC(=O)[C@@H](NC(=O)CNC(=O)c1ccccc1)C(C)C)C(=O)N[C@@H](CCCCNC(=O)C[C@H](Sc1ccc(Cl)c(Cl)c1)C(=O)O)C(=O)N[C@@H](CCC(=O)O)C(=O)N[C@@H](Cc1ccc(O)cc1)C(=O)NCC(=O)N[C@H](C(N)=O)C(C)C (Bz-GVLK(X3)EYGV-NH2) — 7.6-fold lower, 0.0459 µM
- CC(C)C[C@H](NC(=O)[C@@H](NC(=O)CNC(=O)c1ccccc1)C(C)C)C(=O)N[C@@H](CCCCNC(=O)CC(Cc1ccccc1)C(=O)O)C(=O)N[C@@H](CCC(=O)O)C(=O)N[C@@H](Cc1ccc(O)cc1)C(=O)NCC(=O)N[C@H](C(N)=O)C(C)C (stereo partly specified) (Bz-GVLK(X4)EYGV-NH2) — 3.2-fold higher, 1.12 µM
- CC(C)C[C@H](NC(=O)[C@@H](NC(=O)CNC(=O)c1ccccc1)C(C)C)C(=O)N[C@@H](CCCCNC(=O)CC(SCCc1ccccn1)C(=O)O)C(=O)N[C@@H](CCC(=O)O)C(=O)N[C@@H](Cc1ccc(O)cc1)C(=O)NCC(=O)N[C@H](C(N)=O)C(C)C (stereo partly specified) (Bz-GVLK(X5)EYGV-NH2) — 20-fold higher, 6.97 µM
- Cc1noc(C)c1CCS[C@@H](CC(=O)NCCCC[C@H](NC(=O)[C@H](CC(C)C)NC(=O)[C@@H](NC(=O)CNC(=O)c1ccccc1)C(C)C)C(=O)N[C@@H](CCC(=O)O)C(=O)N[C@@H](Cc1ccc(O)cc1)C(=O)NCC(=O)N[C@H](C(N)=O)C(C)C)C(=O)O (Bz-GVLK(X6)EYGV-NH2) — 25-fold higher, 8.75 µM
- CC(C)C[C@H](NC(=O)[C@@H](NC(=O)CNC(=O)c1ccccc1)C(C)C)C(=O)N[C@@H](CCCCNC(=O)CC(SCCc1ccncc1)C(=O)O)C(=O)N[C@@H](CCC(=O)O)C(=O)N[C@@H](Cc1ccc(O)cc1)C(=O)NCC(=O)N[C@H](C(N)=O)C(C)C (stereo partly specified) (Bz-GVLK(X7)EYGV-NH2) — 38-fold higher, 13.2 µM
- CC(C)C[C@H](NC(=O)[C@@H](NC(=O)CNC(=O)c1ccccc1)C(C)C)C(=O)N[C@@H](CCCCNC(=O)C[C@H](Sc1ccccc1)C(=O)O)C(=O)N[C@@H](CCC(=O)O)C(=O)N[C@@H](Cc1ccc(O)cc1)C(=O)NCC(=O)N[C@H](C(N)=O)C(C)C (Bz-GVLK(X8)EYGV-NH2) — within 1.5-fold, 0.274 µM
- Cc1noc(C)c1CCS[C@H](CC(=O)NCCCC[C@H](NC(=O)[C@H](CC(C)C)NC(=O)[C@@H](NC(=O)CNC(=O)c1ccccc1)C(C)C)C(=O)N[C@@H](CCC(=O)O)C(=O)N[C@@H](Cc1ccc(O)cc1)C(=O)NCC(=O)N[C@H](C(N)=O)C(C)C)C(=O)O (Bz-GVLK(X10)EYGV-NH2) — 53-fold higher, 18.5 µM
- CC(C)C[C@H](NC(=O)[C@@H](NC(=O)CNC(=O)c1ccccc1)C(C)C)C(=O)N[C@@H](CCCCNC(=O)C[C@H](SCc1cccc2ccccc12)C(=O)O)C(=O)N[C@@H](CCC(=O)O)C(=O)N[C@@H](Cc1ccc(O)cc1)C(=O)NCC(=O)N[C@H](C(N)=O)C(C)C (Bz-GVLK(X11)EYGV-NH2) — 23-fold lower, 0.0154 µM

Point of comparison: CC(C)C[C@H](NC(=O)[C@@H](NC(=O)CNC(=O)c1ccccc1)C(C)C)C(=O)N[C@@H](CCCCNC(=O)C[C@H](Sc1ccccc1)C(=O)O)C(=O)N[C@@H](CCC(=O)O)C(=O)N[C@@H](Cc1ccc(O)cc1)C(=O)NCC(=O)N[C@H](C(N)=O)C(C)C (Bz-GVLK(X8)EYGV-NH2), Ki 0.135 µM. Against it:
- CC(C)C[C@H](NC(=O)[C@@H](NC(=O)CNC(=O)c1ccccc1)C(C)C)C(=O)N[C@@H](CCCCNC(=O)C[C@H](Sc1ccc(Cl)c(Cl)c1)C(=O)O)C(=O)N[C@@H](CCC(=O)O)C(=O)N[C@@H](Cc1ccc(O)cc1)C(=O)NCC(=O)N[C@H](C(N)=O)C(C)C (Bz-GVLK(X3)EYGV-NH2) — 5.9-fold lower, 0.023 µM
- CC(C)C[C@H](NC(=O)[C@@H](NC(=O)CNC(=O)c1ccccc1)C(C)C)C(=O)N[C@@H](CCCCNC(=O)CC(Cc1ccccc1)C(=O)O)C(=O)N[C@@H](CCC(=O)O)C(=O)N[C@@H](Cc1ccc(O)cc1)C(=O)NCC(=O)N[C@H](C(N)=O)C(C)C (stereo partly specified) (Bz-GVLK(X4)EYGV-NH2) — 1.9-fold higher, 0.263 µM
- CC(C)C[C@H](NC(=O)[C@@H](NC(=O)CNC(=O)c1ccccc1)C(C)C)C(=O)N[C@@H](CCCCNC(=O)C[C@H](SCc1cccc2ccccc12)C(=O)O)C(=O)N[C@@H](CCC(=O)O)C(=O)N[C@@H](Cc1ccc(O)cc1)C(=O)NCC(=O)N[C@H](C(N)=O)C(C)C (Bz-GVLK(X11)EYGV-NH2) — 19-fold lower, 0.007 µM
